The record followed here is PubChem BioAssay AID463204 (Broad Institute, 2010).

The source made the active and inactive calls.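 How the source made its calls: active means AC50 no more than ten times the top concentration tested, that is within one log above it; inconclusive means flat curve fit with activity between 30% and 70%, or invalid poor fit; inactive means AC50 beyond ten times the top tested dose.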

The assay relates to S. cerevisiae Mot1-301 ts growth rescue, BacTiter-Glo ATP luminescence. Description: growth rescue of Mot1-301 ts yeast, confirmation, SUMOylation pathway inhibitor project, whole organism, S. cerevisiae, Mot1-301 ts mutant, luminescence, dose retest (AID 463204).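 Further: growth at restrictive 38.5 degrees C of Mot1-301 OY566 strain; actives raise luminescence by restoring growth of the ts mutant at high temperature.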

For the molecule `CCN1C(=NCc2cccc(Cl)c2)N[C@@H](c2cccc(F)c2)C(C(=O)OC)=C1C`, the AC50 was > 42 µM (inactive).

Consider `Cc1ccc(S(=O)(=O)NN2C(=O)c3ccccc3NC2c2ccccc2F)cc1` (centres undefined), for which the AC50 was > 42 µM (inactive).

Regarding `COc1ccc(C2=C(N)c3ccccc3C2=O)cc1`, the AC50 was > 42 µM (inactive).

In the case of `Cc1ccccc1C(=O)NNC(=S)Nc1cccc(C(F)(F)F)c1`, the AC50 was > 42 µM (inactive).

`CS(=O)(=O)N1CCCC(C(=O)Nc2ccc(F)cc2F)C1` (centres undefined): the AC50 was > 42 µM (inactive).

Take `C/C(=N\NC(=O)c1ccc(Cl)cc1)c1cccnc1`: the AC50 is > 42 µM (inactive).

For the molecule `O=C1NC2(CCCCC2)NN1c1ccccc1`, the AC50 is > 42 µM (inactive).

Take `O=C(CCN1C(=O)S/C(=C/c2ccccc2)C1=O)Nc1ccc(O)c(C(=O)O)c1`: the AC50 was > 42 µM (inactive).

Turning to `O=C(NNS(=O)(=O)c1c(F)cc(F)c(Cl)c1F)C12CC3CC(CC(C3)C1)C2`, the AC50 is 3.45 µM.

Turning to `C/C(=N\N1CCN(Cc2ccccc2Cl)CC1)c1ccc([N+](=O)[O-])cc1`, the AC50 was > 42 µM (inactive).

For `O=C(NCC1CCCO1)c1nn2c(C(F)(F)F)cc(-c3cc(Br)cs3)nc2c1Br` (centres undefined), the AC50 was > 42 µM (inactive).

Regarding `CC(Cc1ccc(O)c(O)c1)C(C)Cc1ccc(O)c(O)c1` (centres undefined), the AC50 is > 42 µM (inactive).

On to `Cn1cccc1CC(=O)N/N=C/c1cccc([N+](=O)[O-])c1`, for which the AC50 is > 42 µM (inactive).

As for `CCCC(O)(CCC)C(=O)NNc1ccc(C)cc1`, the AC50 was > 42 µM (inactive).

For the molecule `CC1CCN(CCCCOc2cccc(C(C)C)c2)CC1`, the AC50 was > 42 µM (inactive).

Take `COc1ccc(NC(=O)c2cc(C)no2)cc1Cl`: the AC50 is > 42 µM (inactive).

For the molecule `COc1ccc(NC(=O)CSc2nccc(C)n2)cc1`, the AC50 was > 42 µM (inactive).

With `CCOC(=O)c1oc2c(c1C)C(=O)CCC2`, the AC50 is > 42 µM (inactive).

As to `Cc1cccc2nc(COc3ccc4ccccc4c3Br)cn12`, the AC50 was 11.9 µM.

`COc1ccc2c(c1)[C@@]13CCC=C[C@H]1[C@@H](C2)NCC3`: the AC50 was > 42 µM (inactive).

Turning to `COc1ccccc1NC(=O)c1nn(-c2cccc(C(F)(F)F)c2)ccc1=O`, the AC50 was > 42 µM (inactive).

Consider `O=C(CCc1nc2sc3c(c2c(=O)[nH]1)CCCC3)N1CCN(c2ccccc2)CC1`, for which the AC50 was > 42 µM (inactive).

As for `O=Cc1cn(Cc2ccccc2F)c2ccccc12`, the AC50 is > 42 µM (inactive).

As for `Cc1ccc(-c2csc(C3=C(O)CN(NC(=O)c4ccco4)C3=N)n2)cc1`, the AC50 was > 42 µM (inactive).

For the molecule `O=C(O)c1ccc(Cl)c(NCc2cccs2)c1`, the AC50 is > 42 µM (inactive).

`C[C@@]12C(=O)Nc3ccc(F)cc3C(=O)N1[C@H]1c3cc(Cl)ccc3OC[C@@H]1[C@@H]2c1ccccc1`: the AC50 is 1.97 µM.

As for `CC(C)c1ccc(NC(=O)COc2nnc(-c3cccs3)c(-c3cccs3)n2)cc1`, the AC50 was > 42 µM (inactive).

As to `CC(C)CN(C(=O)COC(=O)c1ccc2c(c1)OCO2)c1c(N)n(Cc2ccccc2)c(=O)[nH]c1=O`, the AC50 is > 42 µM (inactive).

For `O=Cc1ccc(Oc2cccc(C(F)(F)F)c2)nc1`, the AC50 is > 42 µM (inactive).

On to `COc1ccc2c(c1)OC[C@H]1[C@H]2N2C(=O)c3cc(C)ccc3NC(=O)[C@@]2(C)[C@H]1c1ccccc1`, for which the concentration at half-maximal activity (AC50) was 1.39 µM.

Regarding `CSCC[C@H](NC(=O)CC(C)(C)C)c1nc2ccccc2[nH]1`, the AC50 was > 42 µM (inactive).

Regarding `O=C(NCc1cccnc1)C1CCN(S(=O)(=O)c2cccnc2)CC1`, the AC50 is > 42 µM (inactive).

As to `O=C(CCC(=O)OC(C(=O)c1ccccc1)c1ccccc1)Nc1ccccc1` (centres undefined), the AC50 was > 21 µM (inactive).

On to `O=C1CN(C(=O)COC(=O)COc2ccc3c(c2)CCC3)c2ccccc2N1`, for which the AC50 was > 42 µM (inactive).

On to `O=C(O)CCC(=O)N1N=C(c2c(-c3ccccc3)c3cc(Cl)ccc3[nH]c2=O)CC1c1ccco1` (centres undefined), for which the AC50 was > 42 µM (inactive).

For `C=CCNC(=O)c1cc(-c2cccnc2)nc2ccccc12`, the AC50 is > 42 µM (inactive).

In the case of `O=c1cc(COc2ncnc3ccccc23)nc2sccn12`, the AC50 is > 42 µM (inactive).

With `CCNc1nc(NCC)nc(SCCOC(=O)Nc2ccccc2)n1`, the AC50 was > 42 µM (inactive).

`Cc1cc(NC(=O)/C=C/c2ccco2)ccc1NC(=O)c1ccccc1`: the AC50 was > 42 µM (inactive).

In the case of `Nc1cc[n+](CC(=O)Nc2ccccc2)cc1`, the AC50 was > 42 µM (inactive).

Regarding `Cc1ccc(C)c(S(=O)(=O)n2cnc3ccccc32)c1`, the AC50 is > 42 µM (inactive).

For `COc1cc(OC)cc(OC(=O)c2ccc3c(=O)n4c(nc3c2)CCC4)c1`, the AC50 was > 42 µM (inactive).

Regarding `CN(c1cccnc1)c1ncnc2[nH]ncc12`, the AC50 was > 42 µM (inactive).

As to `COc1ccc(NC(=O)c2ccc(S(=O)(=O)N(C)c3ccccc3)cc2)cn1`, the AC50 was > 42 µM (inactive).

In the case of `Cc1cccc(N/N=C/c2c(O)[nH]c(=S)[nH]c2=O)c1`, the AC50 is > 42 µM (inactive).

As to `CCCCNS(=O)(=O)c1ccc2c(c1)oc(=O)n2CC(=O)OCC`, the AC50 is > 42 µM (inactive).

For `CCN(CC)S(=O)(=O)c1ccc(C(=O)NCCc2cc3c(OC)ccc(OC)c3[nH]c2=O)cc1`, the AC50 was > 42 µM (inactive).

In the case of `CCCCn1c(SCC(=O)Nc2cc(C)on2)nnc1-c1ccco1`, the AC50 is > 42 µM (inactive).

Consider `CC(=O)N1N=C(c2ccc(C(C)(C)C)cc2)OC1(C)C`, for which the AC50 was > 42 µM (inactive).

As to `CCOCCCNC(=O)C(c1ccc(OC)cc1)N(Cc1cccs1)C(=O)c1ccccn1` (centres undefined), the AC50 was > 42 µM (inactive).

Consider `CN(C)C(=O)CNC(=O)C1CCCCC1`, for which the AC50 was > 42 µM (inactive).

As to `CCc1nc2ccccc2c(C(=O)OC2CCCCC2=O)c1C` (centres undefined), the AC50 is > 42 µM (inactive).

On to `CSc1ccccc1NC(=O)COc1nsnc1N1CCOCC1`, for which the AC50 is > 42 µM (inactive).

On to `COc1ccc(/C=C(\C#N)C(=O)NCCCn2ccnc2)cc1`, for which the AC50 was > 42 µM (inactive).

Take `CCOP(=O)(OCC)C(NC(=O)c1cccc([N+](=O)[O-])c1)C(Cl)(Cl)Cl` (centres undefined): the AC50 is > 42 µM (inactive).

As to `c1ccc(-c2csc(NC3CCCCC3)n2)cc1`, the AC50 is > 42 µM (inactive).

As to `Cc1ccc(N2C(=O)C3N=NN(CC(=O)N4N=C(c5cccc6ccccc56)CC4c4ccccc4)C3C2=O)cc1` (centres undefined), the AC50 was > 21 µM (inactive).

On to `COc1ccccc1CCNC(=O)/C(=C/c1cccnc1)NC(=O)c1ccccc1`, for which the AC50 was > 42 µM (inactive).

Turning to `COc1ccc(NC(=O)c2cc(S(=O)(=O)Nc3ccc(OC)cc3)cs2)cc1`, the AC50 was > 42 µM (inactive).

For the molecule `O=C(NCc1ccccc1)c1cccc(COc2ccc(Cl)cc2)c1`, the AC50 was > 42 µM (inactive).

On to `O=C1C2CCCN2C(=S)N1C1CCCCC1` (centres undefined), for which the AC50 is > 42 µM (inactive).

Consider `NS(=O)(=O)c1cccc(NC(=O)c2cccnc2Oc2ccccc2)c1`, for which the AC50 is > 42 µM (inactive).

As to `O=C(NNC(=O)c1ccc(-n2cncn2)c([N+](=O)[O-])c1)c1ccc(Cl)cc1`, the AC50 is > 42 µM (inactive).

Turning to `COc1ccccc1CNc1nc(SC)ncc1CO`, the AC50 was > 42 µM (inactive).

Broadly, the AC50 is the midpoint of the concentration-response curve, whichever way the signal moves.
